The NIST ThermoML archive (doi:10.1016/j.jct.2012.08.030)

How the values were obtained:
[1] = xn = mol fraction of the nth substance listed; conditions: 101.3 kPa, Liquid; for speed of sound: Sing-around technique in a fixed-path interferometer; for mass density: Vibrating tube method
[2] = refractive index (Na D-line) (dimensionless); xn = mol fraction of the nth substance listed; conditions: 101.3 kPa, Liquid, Standard Abbe refractometry

CCCCn1cc[n+](C)c1.COS(=O)(=O)[O-] [1-butyl-3-methylimidazolium methyl sulfate] + CC(C)O
Conditions	mass density, [1] [kg/m3]	refractive index, [2]	speed of sound, [1] [m/s]
298.15 K, x1 = 0.0482	835.17	1.38886	1181.2
298.15 K, x1 = 0.0965	880.673	1.40004	1219.7
298.15 K, x1 = 0.1938	955.343	1.41819	1292.5
298.15 K, x1 = 0.2928	1013.5	1.43226	1358.2
298.15 K, x1 = 0.3902	1059.05	1.44304	1415
298.15 K, x1 = 0.496	1099.29	1.45252	1470.4
298.15 K, x1 = 0.5903	1128.61	1.45942	1514.7
298.15 K, x1 = 0.6902	1154.5	1.46547	1556.5
298.15 K, x1 = 0.7978	1177.96	1.47086	1596.4
298.15 K, x1 = 0.9531	1205.6	1.47709	1642.9
298.15 K, x1 = 1	1212.06	1.47824	1654.6
303.15 K, x1 = 0.0482	831.096	1.38696	1165.3
303.15 K, x1 = 0.0965	876.702	1.39831	1204.4
303.15 K, x1 = 0.1938	951.52	1.41666	1278.2
303.15 K, x1 = 0.2928	1009.8	1.43067	1344.3
303.15 K, x1 = 0.3902	1055.42	1.44158	1401.7
303.15 K, x1 = 0.496	1095.74	1.45108	1457.6
303.15 K, x1 = 0.5903	1125.13	1.458	1502.1
303.15 K, x1 = 0.6902	1151.05	1.46409	1544.2
303.15 K, x1 = 0.7978	1174.52	1.46948	1584.2
303.15 K, x1 = 0.9531	1202.22	1.47576	1630.7
303.15 K, x1 = 1	1208.7	1.47704	1642.2
308.15 K, x1 = 0.0482	826.964	1.38495	1148.9
308.15 K, x1 = 0.0965	872.696	1.39643	1188.9
308.15 K, x1 = 0.1938	947.68	1.41492	1263.7
308.15 K, x1 = 0.2928	1006.09	1.42902	1330.4
308.15 K, x1 = 0.3902	1051.78	1.44001	1388.3
308.15 K, x1 = 0.496	1092.2	1.44958	1444.6
308.15 K, x1 = 0.5903	1121.71	1.45655	1489.5
308.15 K, x1 = 0.6902	1147.61	1.46268	1531.7
308.15 K, x1 = 0.7978	1171.15	1.4681	1571.9
308.15 K, x1 = 0.9531	1198.85	1.47442	1618.5
308.15 K, x1 = 1	1205.35	1.47577	1630
313.15 K, x1 = 0.0482	822.774	1.38288	1132.5
313.15 K, x1 = 0.0965	868.646	1.3945	1173.3
313.15 K, x1 = 0.1938	943.827	1.41317	1249.1
313.15 K, x1 = 0.2928	1002.39	1.4274	1316.5
313.15 K, x1 = 0.3902	1048.13	1.43845	1375
313.15 K, x1 = 0.496	1088.68	1.44808	1431.8
313.15 K, x1 = 0.5903	1118.31	1.4551	1476.9
313.15 K, x1 = 0.6902	1144.23	1.46125	1519.4
313.15 K, x1 = 0.7978	1167.77	1.46674	1559.7
313.15 K, x1 = 0.9531	1195.49	1.47306	1606.4
313.15 K, x1 = 1	1202.01	1.47443	1617.9
